# Experimental data published in patent US20100184770A1, “COMPOUNDS” (Glaxo Group Limited, priority 2006, published 2010).
# Where a name gives a salt, the structure may show the parent alone.
# Test system: histamine-induced congestion
# Experiment: Intranasal challenge method: whole body plethysmography
# Format: in vivo, guinea pigs
# Conditions: dosed intranasally at 1 mg/ml either 1 hr or 24 hr before histamine challenge
# Procedure: Female Dunkin-Hartley guinea pigs 150-250 g are sensitised twice daily for 5 days (week 1) with ovalbumin (OVA) and aluminium hydroxide (Al(OH)3 or Alum) in physiological saline, 25 μl/nostril. Solution is made up at 20 μg/ml OVA, 180 mg/ml Alum. During weeks 2 and 3 animals receive 25 μl/nostril of OVA (5 mg/ml) once daily. During Week 4 guinea pigs will be entered into study but are continually sensitized as per weeks 2 and 3 until the day before dosing with compound or vehicle.
# Pretreatment with test compound is performed at various times prior to histamine challenge. Efficacy dose-response curves are determined 1 hr and/or 3 hr after dosing whereas duration of action may be studied up to 7 days post dose. Test compounds are formulated as solutions in 0.9% sterile saline or suspensions in 0.9% sterile saline/tween80.
# Guinea pigs were anaesthetised with isoflurane (5%, 2-31/min O2), placed in a supine position, and 25 μl of test compound or vehicle dosed into each nostril using a Gilson pipette. After dosing, animals remain supine for at least 30 seconds during recovery from anaesthesia.
# At 30 minutes before the time of histamine challenge, guinea pigs are dosed with atropine sulphate (Sigma A0257, dissolved in saline), 1 mg/kg i.p. Animals are then placed into whole body plethysmograph systems (Buxco® Electronics) where the parameter PenH area under curve (AUC) is recorded as outlined in […], E., SCHWARZE, J., TAKEDA, K., OSHIBA, A., LARSEN, L., IRVIN, C. G. & GELFAND, E. W. (1997) Noninvasive measurement of airway responsiveness in allergic mice using barometric plethysmography. Am. J. Respir. Crit. Care Med. 156, 766-775.
# Hamelmann et al. A 10 minute baseline AUC is recorded and if this value is over 1000, the animals are excluded.
# After the stipulated pre-dose time has been reached, guinea pigs are re-anaesthetised with isoflurane and dosed with either 10 mM or 15 mM histamine or phosphate-buffered saline (PBS), (25 μl per nostril). On recovery from anaesthesia animals are returned to the individual plethysmograph chambers and 4×10 min consecutive PenH AUC recordings are made. These recordings are summed to give a cumulative AUC over 40 mins post histamine challenge for each animal. Data are analysed using ANOVA with post-hoc Fishers LSD test (general linear models, Statistica®) and finally Hochberg adjustment. Inhibition of histamine-induced congestion is determined by statistically significant differences between the mean responses of compound pre-treated groups compared to the vehicle pre-treated, histamine-challenged group.
row,SMILES,inhibition of the response to histamine challenge (PenH AUC)
1,"CN1CCCC(n2nc(Cc3ccc(Cl)cc3)c3ccccc3c2=O)CC1 (centres unmarked) [azelastine, reference compound]",failed to show a similar duration of action

# Molecular target: T1, human H1 receptor (Homo sapiens, UniProt P35367)
# T1 construct: expressed in transfected cells
# Experiment: Histamine H1 functional antagonist assay: determination of antagonist duration (washout, FLIPR)
# Format: cell-based
# Conditions: at one or more time points after washout
# Procedure: 1. Generation of Histamine H1 Cell Line The human H1 receptor is cloned using known procedures described in the literature [Biochem. Biophys. Res. Commun., 201(2):894 (1994)]. Chinese hamster ovary (CHO) cells stably expressing the human H1 receptor are generated according to known procedures described in the literature [Br. J. Pharmacol., 117(6):1071 (1996)].
# To determine the antagonist duration, cells are cultured overnight in non-coated black-walled clear bottom 96-well tissue culture plates, are washed with PBS and are incubated with a concentration of antagonist chosen to give an approximate DR in the range 30-300. Following the 30 min antagonist incubation period, the cells are washed two or three times with 200 μl of PBS and then 100 μl Tyrodes buffer is added to each well to initiate antagonist dissociation. Following incubation for predetermined times, typically 30-270 min at 37° C., the cells are then washed again with 200 μl PBS and are incubated with 100 Tyrodes buffer containing Brilliant Black, probenecid and Fluo-4 for 45 min at 37° C., as described above. After this period, the cells are challenged with histamine in the FLIPR™ as described above. The dose ratio at each time point is used to determine the fractional H1 receptor occupancy by the following equation: fractional receptor occupancy=(DR-1)/DR. The decrease in receptor occupancy over time approximates to a straight line and is analysed by linear regression. The slope of this straight line fit is used as an index of the dissociation rate of the antagonist. The dose ratios for antagonist treated cells and for antagonist treated and washed cells at each time point are used to calculate a relative dose ratio (rel DR) which is also used as an index of antagonist duration. Antagonists with long duration of action produce rel DR values close to 1, and antagonists with short duration of action produce rel DR values that approaches the dose ratio value obtained for antagonist treatment alone.
# T1 sequence (P35367 whole entry): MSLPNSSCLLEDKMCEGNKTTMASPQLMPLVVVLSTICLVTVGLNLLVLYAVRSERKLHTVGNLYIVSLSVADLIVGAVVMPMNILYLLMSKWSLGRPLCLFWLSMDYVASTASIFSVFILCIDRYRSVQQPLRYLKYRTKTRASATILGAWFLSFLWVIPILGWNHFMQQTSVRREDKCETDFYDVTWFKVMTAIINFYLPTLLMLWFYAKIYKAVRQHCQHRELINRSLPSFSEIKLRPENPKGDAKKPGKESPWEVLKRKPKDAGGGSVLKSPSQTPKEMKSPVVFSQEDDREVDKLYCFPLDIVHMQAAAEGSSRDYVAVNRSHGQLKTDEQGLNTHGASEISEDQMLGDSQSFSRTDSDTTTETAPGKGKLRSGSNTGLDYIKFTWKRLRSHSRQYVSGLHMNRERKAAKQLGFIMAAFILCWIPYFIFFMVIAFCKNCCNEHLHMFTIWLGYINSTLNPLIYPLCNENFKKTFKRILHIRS
row,SMILES,duration of action compared with azelastine in the histamine H1 functional antagonist assay
1,"CC(C)(C)NC(=O)CN1CCCC1Cn1nc(Cc2ccc(Cl)cc2)c2ccccc2c1=O.O=C(O)C(F)(F)F [Example 30, 2-((2R)-2-{[4-[(4-chlorophenyl)methyl]-1-oxo-2(1H)-phthalazinyl]methyl}-1-pyrrolidinyl)-N-(1,1-dimethylethyl) acetamide, trifluoroacetate]",longer duration of action than azelastine
2,"COCCC(=O)NCCCN1CCC[C@@H]1Cn1nc(Cc2ccc(Cl)cc2)c2ccccc2c1=O [Example 42, N-[3-((2R)-2-{[4-[(4-Chlorophenyl)methyl]-1-oxo-2(1H)-phthalazinyl]methyl}-1-pyrrolidinyl)propyl]-3-(methyloxy)propanamide, trifluoroacetate]",longer duration of action than azelastine
3,"COCCN(C)C(=O)CCN1CCC[C@@H]1Cn1nc(Cc2ccc(Cl)cc2)c2ccccc2c1=O.O=C(O)C(F)(F)F [Example 14, 3-((2R)-2-{[4-[(4-chlorophenyl)methyl]-1-oxo-2(1H)-phthalazinyl]methyl}-1-pyrrolidinyl)-N-methyl-N-[2-(methyloxy)ethyl] propanamide, trifluoroacetate]",longer duration of action than azelastine
4,"CC(C)(C)C(=O)NCCN1CCC[C@@H]1Cn1nc(Cc2ccc(Cl)cc2)c2ccccc2c1=O.O=C(O)C(F)(F)F [Example 38, N-[2-((2R)-2-{[4-[(4-chlorophenyl)methyl]-1-oxo-2(1H)-phthalazinyl]methyl}-1-pyrrolidinyl)ethyl]-2,2-dimethylpropanamide, trifluoroacetate]",longer duration of action than azelastine
5,"COCCCC(=O)NCCN1CCC[C@@H]1Cn1nc(Cc2ccc(Cl)cc2)c2cnccc2c1=O [Example 70, N-[2-((2R)-2-{[4-[(4-chlorophenyl)methyl]-1-oxopyrido[3,4-d]pyridazin-2(1H)-yl]methyl}-1-pyrrolidinyl)ethyl]-4-(methyloxy)butanamide, trifluoroacetate]",longer duration of action than azelastine
6,"O=C(CCN1CCC[C@@H]1Cn1nc(Cc2ccc(Cl)cc2)c2ccccc2c1=O)NCCF.O=C(O)C(F)(F)F [Example 1, 3-((2R)-2-{[4-[(4-Chlorophenyl)methyl]-1-oxo-2(1H)-phthalazinyl]methyl}-1-pyrrolidinyl)-N-(2-fluoroethyl)propanamide, trifluoroacetate]",longer duration of action than azelastine
7,"O=C(CCN1CCC[C@@H]1Cn1nc(Cc2ccc(Cl)cc2)c2ccccc2c1=O)NCC(F)F.O=CO [Example 6, formic acid-3-((2R)-2-{[4-[(4-chlorophenyl)methyl]-1-oxo-2(1H)-phthalazinyl]methyl}-1-pyrrolidinyl)-N-(2,2-difluoroethyl)propanamide (1:1)]",longer duration of action than azelastine
8,"COCC(=O)NCCN1CCC[C@@H]1Cn1nc(Cc2ccc(Cl)cc2)c2ccccc2c1=O.O=C(O)C(F)(F)F [Example 39, N-[2-((2R)-2-{[4-[(4-chlorophenyl)methyl]-1-oxo-2(1H)-phthalazinyl]methyl}-1-pyrrolidinyl)ethyl]-2-(methyloxy)acetamide, trifluoroacetate]",longer duration of action than azelastine
9,"CC(C)c1noc(CCN2CCC[C@@H]2Cn2nc(Cc3ccc(Cl)cc3)c3ccccc3c2=O)n1.Cl [Example 61, 4-[(4-Chlorophenyl)methyl]-2-[((2R)-1-{2-[3-(1-methylethyl)-1,2,4-oxadiazol-5-yl]ethyl}-2-pyrrolidinyl)methyl]-1(2H)-phthalazinone, hydrochloride]",longer duration of action than azelastine
10,"COCCNC(=O)CCCN1CCC[C@@H]1Cn1nc(Cc2ccc(Cl)cc2)c2ccccc2c1=O.O=CO [Example 24, Formic acid-4-((2R)-2-{[4-[(4-chlorophenyl)methyl]-1-oxo-2(1H)-phthalazinyl]methyl}-1-pyrrolidinyl)-N-[2-(methyloxy)ethyl] butanamide (1:1)]",longer duration of action than azelastine
11,"O=C(CCN1CCC[C@@H]1Cn1nc(Cc2ccc(Cl)cc2)c2ccccc2c1=O)N1CCCCC1.O=C(O)C(F)(F)F [Example 12, 4-[(4-chlorophenyl)methyl]-2-({(2R)-1-[3-oxo-3-(1-piperidinyl)propyl]-2-pyrrolidinyl}methyl)-1(2H)-phthalazinone, trifluoroacetate]",longer duration of action than azelastine
12,"CC(C)(C)C(=O)NCCCN1CCC[C@@H]1Cn1nc(Cc2ccc(Cl)cc2)c2cnccc2c1=O.O=C(O)C(F)(F)F [Example 80, N-[3-((2R)-2-{[4-[(4-chlorophenyl)methyl]-1-oxopyrido[3,4-d]pyridazin-2(1H)-yl]methyl}-1-pyrrolidinyl)propyl]-2,2-dimethylpropanamide, trifluoroacetate]",longer duration of action than azelastine
13,"CCCNC(=O)CCCN1CCC[C@@H]1Cn1nc(Cc2ccc(Cl)cc2)c2ccccc2c1=O.Cl [Example 26, 4-((2R)-2-{[4-[(4-Chlorophenyl)methyl]-1-oxo-2(1H)-phthalazinyl]methyl}-1-pyrrolidinyl)-N-propylbutanamide, hydrochloride]",longer duration of action than azelastine
14,"CC(C)C(=O)NCCN1CCC[C@@H]1Cn1nc(Cc2ccc(Cl)cc2)c2ccccc2c1=O.O=C(O)C(F)(F)F [Example 41, N-[2-((2R)-2-{[4-[(4-chlorophenyl)methyl]-1-oxo-2(1H)-phthalazinyl]methyl}-1-pyrrolidinyl)ethyl]-2-methylpropanamide, trifluoroacetate]",longer duration of action than azelastine
15,"O=C(CCN1CCC[C@@H]1Cn1nc(Cc2ccc(Cl)cc2)c2ccccc2c1=O)NCC(F)(F)F [Example 4, 3-((2R)-2-{[4-[(4-chlorophenyl)methyl]-1-oxo-2(1H)-phthalazinyl]methyl}-1-pyrrolidinyl)-N-(2,2,2-trifluoroethyl)propanamide]",longer duration of action than azelastine
16,"CCOCCNC(=O)CCN1CCCC1Cn1nc(Cc2ccc(Cl)cc2)c2ccccc2c1=O.O=C(O)C(F)(F)F [Example 22, 3-((2R)-2-{[4-[(4-chlorophenyl)methyl]-1-oxo-2(1H)-phthalazinyl]methyl}-1-pyrrolidinyl)-N-[2-(ethyloxy)ethyl] propanamide, trifluoroacetate]",longer duration of action than azelastine
